Test results from patent publication US5317022A, “Pharmaceutical composition and use” (priority 1991, dated 1994).
“Also recorded” adds a separate entry of the source. Read-outs that look alike come from different tables or passages of the source.

Tests used:
rat [1] = assay: analgetic effect, hot plate (rat); assay type: in vivo
mice [2] = assay: physical dependency, jumping test on mice; conditions: treatment 7 x 100 mg/kg ip.; naloxone 50 mg/kg ip.
mice [3] = assay: analgetic effect, writhing test (mice); assay type: in vivo
rat [4] = assay: analgetic effect, tail flick (rat); assay type: in vivo
rats [5] = assay: sedative (narcosis potentiating) effect, Inactine base narcotic, rats; assay type: in vivo
Experimental: Inactine (35 mg/kg) was used as a base narcotic.
*ED500 % = dose increasing narcosis to five times the control.

rat [6] = conditions: dose giving 100% activity
rabbits [7] = assay: effects on respiration on conscious rabbits (III.5, Marey-drum)
Experimental: Investigation was carried out on conscious rabbits of both sexes and of 3-4 kg weight by way of a Marey-drum. Frequency and amplitude of respiration were quantitatively evaluated.

mice [8] = conditions: in vivo
[9] = molecular target: (^3 H)naloxone binding sites; assay: competition binding assay with (3H)naloxone on rat brain membranes; conditions: membranes incubated with (3H)naloxone 1 nM and increasing ligand concentrations; read-out: Affinity constants (Ki nM) in competition assays
Experimental: (§1) Membrane preparation: A crude membrane fraction from rat brain (PVG/C strain) was prepared [Mol. Pharm.11 (1975) 340-351 and the protein content was defined [Anal. Biochem. 72(1976) 248-254).
(§2) The membrane suspension (200-400 μg protein) was incubated with the specific radioligand for 1 hour on ice. Incubations were terminated by rapid filtration under vacuo followed by washing with ice cold tris HCl buffer (50 mM, pH 7,4). Radioactivity was measured in a toluene based scintillation mixture on a LKB Minibeta Liquid Scintillation Spectrophotometer. Nonspecific binding was defined in the presence of 10 μM unlabeled naloxone. All assays were performed in triplicate and repeated several times. Ki values were determined from equilibrium experiments and calculated with the Tshang-Prusov equation. The data were evaluated using the Ligand program [Anal. Biol. Chem. 107 (1980) 220-239](Data shown on Table III/1).

rabbits [10] = assay: effect on respiration on conscious rabbits (III.6, type A/B/C tests); assay type: in vivo; parameters: resp. change ampl.: unit not given here
Experimental: The method as described above in Example III.5 was used on conscious rabbits of 2,5-3 kg weight. Registration was continued for 3-4 hours. The samples were injected under the skin of the neck and the respiration parameters were registered at intervals of 10 minutes.

rat [11] = assay: animal or person; conditions: read-out: algolyt. test (rat) 100% activity
[12] = molecular target: (^3 H)naloxone binding sites; assay: wash-resistant binding of (3H)naloxone, rat brain membranes; conditions: preincubated with (3H)naloxone 1 nM and test compound; remaining specific binding after several washings; average of 2-4 data; compound.HCl; read-out: Ki (nM), affinity constants
Experimental: as §1, §2
After preincubation a thorough washing was performed. [Life Sci. 32 (1983) 2777-2784]. Control values are represented by the specific binding of (3H)naloxone to membranes preincubated with a buffer and treated in the same way. Heterologous displacement experiments were used to evaluate the affinity of the investigated compounds for (^3 H)naloxone binding sites.

rats [13] = tested on: rats
[14] = s.c. on rats, Inactine 35 mg/kg, dose as base
[15] = type A: OH 0.25 mg/kg s.c., 20 min
[16] = type A: OH 0.25 mg/kg s.c., 30 min
[17] = type A: OH 0.25 mg/kg s.c., then morphine 5 mg/kg s.c., 10 min
[18] = type C: OH 0.25 mg/kg with morphine 5 mg/kg s.c., 20 min
[19] = type A: OP 0.1 mg/kg s.c., 10 min
[20] = type A: OP 0.5 mg/kg s.c., 10 min
[21] = type A: OP 0.5 mg/kg s.c., then morphine 5 mg/kg s.c., 10 min
[22] = type A: OP 0.5 mg/kg s.c., then morphine 5 mg/kg s.c., 60 min
[23] = type B: morphine 5 mg/kg s.c., then OP 1.0 mg/kg s.c., 20 min
[24] = type B: morphine 5 mg/kg s.c., then OP 1.0 mg/kg s.c., 30 min
[25] = type C: OP 0.25 mg/kg with morphine 5 mg/kg s.c., 20 min
[26] = type C: OP 0.25 mg/kg with morphine 5 mg/kg s.c., 30 min
[27] = type C: OP 0.25 mg/kg with morphine 10 mg/kg s.c., 10 min
[28] = type C: OP 0.25 mg/kg with morphine 20 mg/kg s.c., 30 min

## CN1CC[C@]23c4c5ccc(O)c4O[C@H]2[C@@H](O)C=C[C@H]3[C@H]1C5 [Morphine, reference compound]
Rat [1]; rat
  hot plate (rat) ED50: 3,6 mg/kg
Mice [2]
  % relation of jumping animals: 100%
  number of jumps/mouse (average): 34,5
Mice [3]; mice
  writhing test (mice) ED50: 0,45 mg/kg
Rat [4]; rat
  tail flick (rat) ED50: 1,8 mg/kg
Rats [5]; [14]
  ED500 % (dose increasing narcosis to five times the control): 1,75 mg/kg
Rat [6]
  algolyt. test (rat) 100% activity: 15,0 mg/kg

## COc1ccc2c3c1O[C@H]1C(=NN)CC[C@@]4(O)[C@@H](C2)N(C)CC[C@]314 [Oxycodone hydrazone, 14-OH-DIHYDROCODEINONE-HYDRAZONE (TRANS)]
Rabbits [7]; 50 μg/kg dose
  volume and frequency of respiration (in words): increases both the volume and the frequency of respiration
Rabbits [7]; rabbit, in vivo
  respiration effect (printed over two lines: slight reversion): reversion
  reversal of morphine respiratory depression (in words): a partial reversal takes place
Rabbits [7]; rabbit, in vivo, sc
  respiration frequency/min.: .uparw.
  respiration volume: .uparw.
Rat [1]; Rattus norvegicus; read-out: hot plate (rat) ED50
  ED50: 0.46 mg/kg
Mice [8]
  number of jumps/mouse (average): 1,5
Mice [8]; mouse
  % relation of jumping animals: 50%
Mice [3]; Mus musculus; read-out: writhing test (mice) ED50
  ED50: 0.35 mg/kg
[9]
  Ki: 800 nM
Rabbits [10]; [15]
  resp. change ampl.: +20
  resp. change fr/min: +150
Rabbits [10]; [16]
  resp. change ampl.: +20
  resp. change fr/min: +127
Rabbits [10]; [17]
  resp. change ampl.: -30
  resp. change fr/min: -36
Rabbits [10]; [18]
  resp. change ampl.: +10
  resp. change fr/min: +30
Rat [4]; Rattus norvegicus; read-out: tail flick (rat) ED50
  ED50: 0.65 mg/kg
Rats [5]; rat, in vivo
  ED500 % (dose increasing narcosis to five times the control): 0,45 mg/kg
  potentiation of Inactine narcosis (in words): most effectively prolongated
Rat [11]
  ED100: 10 mg/kg

## COc1ccc2c3c1O[C@H]1C(=NNc4ccccc4)CC[C@@]4(O)[C@@H](C2)N(C)CC[C@]314 [Oxycodone-phenylhydrazone, 14-OH-DIHYDROCODEINONE-PHENYLHYDRAZONE (CIS)]
Rabbits [7]; rabbit, in vivo
  influence on the respiratory depression effect of morphine (in words): partially antagonizes the effect of morphine
Rabbits [7]; rabbit, in vivo, sc
  respiration effect: no change; also recorded: slight stym
Rat [1]; Rattus norvegicus, read-out: hot plate (rat) ED50
  ED50: 0.8 mg/kg
Mice [3]; Mus musculus, read-out: writhing test (mice) ED50
  ED50: 1.2 mg/kg
[9]
  Ki: 1150 nM
[12]
  Ki: 1150 nM
Rabbits [10]; [19]
  resp. change ampl.: +20
  resp. change fr/min: +33
Rabbits [10]; [20]
  resp. change ampl.: 0
  resp. change fr/min: +16
Rabbits [10]; [21]
  resp. change ampl.: -20
  resp. change fr/min: -17
Rabbits [10]; [22]
  resp. change ampl.: 0
  resp. change fr/min: 0
Rabbits [10]; [23]
  resp. change ampl.: +15
  resp. change fr/min: -16
Rabbits [10]; [24]
  resp. change ampl.: +20
  resp. change fr/min: -6
Rabbits [10]; [25]
  resp. change ampl.: +20
  resp. change fr/min: +44
Rabbits [10]; [26]
  resp. change ampl.: +30
  resp. change fr/min: +92
Rabbits [10]; [27]
  resp. change ampl.: +20
  resp. change fr/min: +23
Rabbits [10]; [28]
  resp. change ampl.: 0
  resp. change fr/min: -8
Rat [4]; Rattus norvegicus, read-out: tail flick (rat) ED50
  ED50: 1.2 mg/kg
Rats [5]; rat, in vivo
  ED500 % (dose increasing narcosis to five times the control): 1,5 mg/kg
Rat [11]
  ED100: 10 mg/kg

## COc1ccc2c3c1O[C@H]1C(=O)CC[C@@]4(O)[C@@H](C2)N(C)CC[C@]314 [Oxycodone, reference compound]
Rabbits [7]; 10-2500 μg/kg i.v., s.c.
  respiration effect: depression
  respiration frequency/min.: .dwnarw.
  respiration volume: .dwnarw.
Rabbits [7]; rabbit, in vivo
  influence on the respiratory depression effect of morphine (in words): unambiguously potentiate the respiratory depression effect of morphine
Rabbits [7]; s.c., dihydrocodeinone 50-2500 μg/kg, oxycodone 10-2500 μ/kg
  respiratory depression by the compound alone (in words): cause respiratory depression
Rat [1]; rat
  hot plate (rat) ED50: 0.92 mg/kg
Mice [3]; mice
  writhing test (mice) ED50: 0,45 mg/kg
Rat [4]; rat
  tail flick (rat) ED50: 0,68 mg/kg
Rats [5]; [14]
  ED500 % (dose increasing narcosis to five times the control): 1,2 mg/kg
Rats [13]; administered together with morphine, s.c.
  change of morphine toxicity (in words): potentiate toxicity of morphine
Rats [13]; test substance 10 mg/kg s.c.
  Combination LD50 / morphine LD50: 0,57
Rat [6]
  algolyt. test (rat) 100% activity: 2,2 mg/kg
